pIC50: −log10 of the molar value. Where two headings read alike, the source gives them in different places.
Target: P97 (Homo sapiens (Human), UniProt P55072)
Assay: P97 Biomolgreen ATPase assay, 200 μM ATP
Assay type: biochemical
Conditions: for pIC50: read-out: P97 Biomolgreen, IC50; for IC50: P97 Biomolgreen, IC50 (μM)

Chain of P97 (P55072 whole entry): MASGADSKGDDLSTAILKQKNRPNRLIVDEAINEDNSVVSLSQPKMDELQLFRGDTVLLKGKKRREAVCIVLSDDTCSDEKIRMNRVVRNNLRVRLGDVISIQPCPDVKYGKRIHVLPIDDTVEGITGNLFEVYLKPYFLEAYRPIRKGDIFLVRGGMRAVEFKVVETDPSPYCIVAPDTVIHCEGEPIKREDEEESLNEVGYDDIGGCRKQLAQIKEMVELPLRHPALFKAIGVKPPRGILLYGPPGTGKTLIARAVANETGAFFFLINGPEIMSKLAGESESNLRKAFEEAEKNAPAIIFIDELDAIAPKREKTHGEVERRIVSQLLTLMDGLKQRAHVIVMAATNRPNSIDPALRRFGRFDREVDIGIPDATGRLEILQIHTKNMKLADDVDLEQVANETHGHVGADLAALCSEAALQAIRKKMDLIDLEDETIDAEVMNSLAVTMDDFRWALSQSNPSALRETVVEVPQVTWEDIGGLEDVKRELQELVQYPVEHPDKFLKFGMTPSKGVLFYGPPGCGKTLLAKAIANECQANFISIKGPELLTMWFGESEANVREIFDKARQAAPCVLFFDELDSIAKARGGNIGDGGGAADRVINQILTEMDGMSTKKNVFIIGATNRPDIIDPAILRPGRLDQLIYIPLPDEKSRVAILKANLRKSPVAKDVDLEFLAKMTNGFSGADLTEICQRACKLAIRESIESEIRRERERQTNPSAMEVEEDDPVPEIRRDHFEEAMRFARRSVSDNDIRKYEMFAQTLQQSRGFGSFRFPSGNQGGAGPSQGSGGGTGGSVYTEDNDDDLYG

SMILES	pIC50	IC50 [µM]
Cc1cc(OCc2nnc(SC3CCCC3)n2-c2cccnc2)ccc1C#CC#N [Compound 5]	7.68	
Cc1cc(OCc2nnc(SC3C=CCCC3)n2-c2cccnc2)ccc1C#CCNS(C)(=O)=O (centres unmarked) [Compound 14]	7.46	
[2H]C1([2H])C([2H])([2H])C([2H])([2H])C([2H])(Sc2nnc(COc3ccc(C#CCNC(=O)OC(C)(C)C)c(C)c3)n2-c2cccnc2)C1([2H])[2H] [Compound 46]		0.19
Cc1cc(OCc2nnc(SC3C=CCCC3)n2-c2cccnc2)ccc1C#CCN1C(=O)c2ccccc2C1=O (centres unmarked) [Compound 47]	6.54	
OCC#Cc1ccc(OCc2nnc(SC3C=CCCC3)n2-c2cccnc2)cc1F (centres unmarked) [Compound 97]	7.59	
C#Cc1ccc(OCc2nnc(SC3CCCC3)n2-c2cccnc2)cc1C [Compound 2]	7.31	
Cc1cc(OCc2nnc(SC3C=CCCC3)n2-c2cccnc2)ccc1C#CC1(O)CN(C(=O)OC(C)(C)C)C1 (centres unmarked) [Compound 72]	6.74	
Cc1cc(OCc2nnc(SC3C=CCCC3)n2-c2cccnc2)ccc1C#CC1(NC(=O)OC(C)(C)C)CCCCC1 (centres unmarked) [Compound 53]	5.96	
Cc1cc(OCc2nnc(SC3CCCC3)n2-c2cccnc2)ccc1C#CCOC(=O)NCCNC(=O)CC1[C@H]2CC3C[C@H](C2)C[C@H]1C3 (some centres unmarked) [Compound 110]	7.22	
Cc1cc(OCc2nnc(SC3C=CCCC3)n2-c2cccnc2)ccc1C#CCN (centres unmarked) [Compound 4]	7.36	
Cc1cc(OCc2nnc(SC3C=CCCC3)n2-c2cccnc2)ccc1C#CCNS(=O)(=O)N(C)C (centres unmarked) [Compound 33]	7.37	
Cc1cc(OCc2nnc(SC3C=CCCC3)n2-c2cccnc2)ccc1C#CCNC1CCCCC1 (centres unmarked) [Compound 17]	7.40	
CC(=O)N1CCN(C(=O)OCC#Cc2ccc(OCc3nnc(SC4C=CCCC4)n3-c3cccnc3)cc2C)CC1 (centres unmarked) [Compound 102]	7.52	
[2H]C1([2H])C([2H])([2H])C([2H])([2H])C([2H])(Sc2nnc(CNc3ccc(C#CCO)c(C)c3)n2-c2cccnc2)C1([2H])[2H] [Compound 117]		0.99
C#Cc1ccc(OCc2nnc(SC3CC3)n2-c2cccnc2)cc1C [Compound 48]	6.17	
[2H]C1([2H])C([2H])([2H])C([2H])([2H])C([2H])(Sc2nnc(COc3ccc(C#CCN4CCS(=O)(=O)CC4)c(C)c3)n2-c2cccnc2)C1([2H])[2H] [Compound 41]		0.16
[2H]C1([2H])C([2H])([2H])C([2H])([2H])C([2H])(Sc2nnc(COc3ccc(C#CCOC(=O)N4CCC4)c(C)c3)n2-c2cccnc2)C1([2H])[2H] [Compound 37]		0.07
[2H]C1([2H])C([2H])([2H])C([2H])([2H])C([2H])(Sc2nnc(COc3ccc(C#CCOC(=O)NCc4cc(C)on4)c(C)c3)n2-c2cccnc2)C1([2H])[2H] [Compound 35]		0.064
Cc1cc(OCc2nnc(SC3C=CCCC3)n2-c2cccnc2)ccc1C#CC(C)(C)NC(=O)OC(C)(C)C (centres unmarked) [Compound 45]	6.19	

SMILES	pIC50	IC50 [µM]
Cc1cc(OCc2nnc(SC3CCCC3)n2-c2cccnc2)ccc1C#CCNC(C)C [Compound 11]	8.15	
Cc1cc(OCc2nnc(SC3C=CCCC3)n2-c2cccnc2)ccc1C#CCOC(=O)NCCN1CCN(C(C)C)CC1 (centres unmarked) [Compound 29]	7.72	
[2H]C1([2H])C([2H])([2H])C([2H])([2H])C([2H])(Sc2nnc(COc3ccc(C#CCOC(=O)OCC#Cc4ccc(OCc5nnc(SC6([2H])C([2H])([2H])C([2H])([2H])C([2H])([2H])C6([2H])[2H])n5-c5cccnc5)cc4C)c(C)c3)n2-c2cccnc2)C1([2H])[2H] [Compound 133]		0.91
CN1CCN(CCNC(=O)OCC#Cc2ccc(OCc3nnc(SC4C=CCCC4)n3-c3cccnc3)cc2C(F)(F)F)CC1 (centres unmarked) [Compound 82]	7.37	
[2H]C1([2H])C([2H])([2H])C([2H])([2H])C([2H])(Sc2nnc(COc3ccc(C#CCO)c(C)c3)n2-c2cccnc2)C1([2H])[2H] [Compound 93]		0.048
Cc1cc(OCc2nnc(SC3CCCC3)n2-c2cccnc2)ccc1C#CCN1CCOCC1 [Compound 8]	7.41	
Cc1cc(OCc2nnc(SC3C=CCCC3)n2-c2cccnc2)ccc1C#CCNC(=O)C1CC1 (centres unmarked) [Compound 103]	7.52	
[2H]C1([2H])C([2H])([2H])C([2H])([2H])C([2H])(Sc2nnc(COc3ccc(C#CC(C)OC)c(C)c3)n2-c2cccnc2)C1([2H])[2H] (centres unmarked) [Compound 27]		0.16
C#Cc1ccc(OCc2nnc(SC3C=CCCC3)n2-c2cccnc2)cc1C (centres unmarked) [Compound 127]	7.42	
Cc1cc(OCc2nnc(SC3CCCC3)n2-c2cccnc2)ccc1C#CCNC(=O)C(C)(C)C [Compound 10]	7.04	
CCC(=O)NCC#Cc1ccc(OCc2nnc(SC3C=CCCC3)n2-c2cccnc2)cc1C (centres unmarked) [Compound 112]	7.60	
Cc1cc(OCc2nnc(CC3CCCC3)n2-c2cccnc2)ccc1C#CCOC(=O)NCCN1CCN(C)CC1 [Compound 69]	7.18	
Cc1cc(OCc2nnc(SC3C=CCCC3)n2-c2cccnc2)ccc1C#CCN(C)S(C)(=O)=O (centres unmarked) [Compound 25]	7.18	
[2H]C1([2H])C([2H])([2H])C([2H])([2H])C([2H])(Sc2nnc(COc3ccc(C#CC(C)OC(=O)NC(C)C)c(C)c3)n2-c2cccnc2)C1([2H])[2H] (centres unmarked) [Compound 1]		0.16
Cc1cc(OCc2nnc(SC3C=CCCC3)n2-c2cccnc2)ccc1C#CCNC1CCN(C)CC1 (centres unmarked) [Compound 19]	7.44	
Cc1cc(OCc2nnc(SC3CCCC3)n2-c2cccnc2)ccc1C#CCNS(C)(=O)=O [Compound 13]	7.30	
COc1cc(C#CCOC(=O)NC2CCN(C)CC2)c(F)cc1OCc1nnc(SC2C=CCCC2)n1-c1cccnc1 (centres unmarked) [Compound 122]	7.72	
Cc1cc(OCc2nnc(SC3C=CCCC3)n2-c2cccnc2)ccc1C#CCNS(=O)(=O)N1CCCC1 (centres unmarked) [Compound 64]	7.22	
C=CCSc1nnc(COc2ccc(C#CCNC(=O)CC)c(C)c2)n1-c1cccnc1 [Compound 131]	6.48	

SMILES	pIC50	IC50 [µM]
Cc1cc(OCc2nnc(SC3CCCC3)n2-c2cccnc2)ccc1C#CCN1CCS(=O)(=O)CC1 [Compound 44]	6.74	
[2H]C1([2H])C([2H])([2H])C([2H])([2H])C([2H])(Sc2nnc(COc3ccc(C#CCOC(=O)NCCc4ncnn4C)c(C)c3)n2-c2cccnc2)C1([2H])[2H] [Compound 31]		0.052
Cc1cc(OCc2nnc(SC3C=CCCC3)n2-c2cccnc2)ccc1C#CCNS(=O)(=O)C1CCN(C(=O)OC(C)(C)C)CC1 (centres unmarked) [Compound 78]	7.05	
Cc1cc(OCc2nnc(SC3C=CCCC3)n2-c2cccnc2)ccc1C#CCOC(=O)NCC1(N2CCN(C(C)C)CC2)CCC1 (centres unmarked) [Compound 30]	7.96	
COC(=O)NCC#Cc1ccc(OCc2nnc(SC3CCCC3)n2-c2cccnc2)cc1C [Compound 12]	7.54	
[2H]C1([2H])C([2H])([2H])C([2H])([2H])C([2H])(Sc2nnc(COc3ccc(C#CCOC(=O)NC4CCN(C)CC4)c(C)c3)n2-c2cccnc2)C1([2H])[2H] [Compound 125]		0.016
Cc1cc(OCc2nnc(SC3C=CCCC3)n2-c2cccnc2)ccc1C#CCOC(=O)N1CCN(C(C)C)CC1 (centres unmarked) [Compound 101]	7.52	
Cc1cc(OCc2nnc(CC3CCCC3)n2-c2cccnc2)ccc1C#CCOC(=O)NCCN1CCN(C(C)C)CC1 [Compound 66]	6.92	
CCC(=O)NCC#Cc1ccc(OCc2nnc(SC3C=CCCC3)n2-c2cccnc2)cc1C (centres unmarked) [Compound 94]	7.52	
Cc1cc(OCc2nnc(SC3C=CCCC3)n2-c2cccnc2)ccc1C#CCOC(=O)NCCN1CCN(C(C)C)CC1 (centres unmarked) [Compound 60]	7.72	
[2H]C1([2H])C([2H])([2H])C([2H])([2H])C([2H])(Sc2nnc(COc3ccc(C#CCOC(=O)NC4CCN(C)CC4)c(F)c3)n2-c2cccnc2)C1([2H])[2H] [Compound 126]		0.016
[2H]C1([2H])C([2H])([2H])C([2H])([2H])C([2H])(Sc2nnc(COc3ccc(C#CCNCCN4CCN(C)CC4)c(C)c3)n2-c2cccnc2)C1([2H])[2H] [Compound 68]		0.17
Cc1cc(OCc2nnc(SC3CCCC=C3F)n2-c2cccnc2)ccc1C#CCOC(=O)NCCN1CCN(C(C)C)CC1 (centres unmarked) [Compound 81]	6.80	
[2H]C1([2H])C([2H])([2H])C([2H])([2H])C([2H])(Sc2nnc(COc3cc(F)c(C#CCO)cc3F)n2-c2cccnc2)C1([2H])[2H] [Compound 123]		0.021
[2H]C([2H])(O)C#Cc1ccc(OCc2nnc(SC3([2H])C([2H])([2H])C([2H])([2H])C([2H])([2H])C3([2H])[2H])n2-c2cccnc2)cc1F [Compound 109]		0.03
[2H]C1([2H])C([2H])([2H])C([2H])([2H])C([2H])(Sc2nnc(COc3ccc(C#CC(C)O)c(C)c3)n2-c2cccnc2)C1([2H])[2H] (centres unmarked) [Compound 26]		0.068
N#Cc1ccc(C#CCOCc2nnc(SC3CCCC3)n2-c2cccnc2)cc1 [Compound 56]	< 5.17	
[2H]C1([2H])C([2H])([2H])C([2H])([2H])C([2H])(Sc2nnc(COc3ccc(C#CCOC(=O)N4CCOCC4)c(C)c3)n2-c2cccnc2)C1([2H])[2H] [Compound 6]		0.044
